# Results: patent US20220304976A1, “Method of simultaneously treating viral disease caused coronavirus, its variants and mutants using a pharmaceutical micronutrient composition” (priority 2021, published 2022)
# Tested on: A549 cells expressing SARS-CoV-2 spike protein fusing with A549 cells overexpressing hACE2
# Assay type: cell-based, human
Compound,decrease of cell attachment (cell-cell fusion),reduction of cell-cell fusion (in words)
Oc1ccc2c(c1)OC[C@]1(O)Cc3cc(O)c(O)cc3[C@H]21 [Brazilin],40%,can reduce cell-cell fusion
COc1cc(/C=C/C(=O)CC(=O)/C=C/c2ccc(O)c(OC)c2)ccc1O [Curcumin],–,can reduce cell-cell fusion
Theaflavine-3′3-digallate,–,can reduce cell-cell fusion
